# Results from patent US12617777B2, “GPR84 antagonists and uses thereof” (Liminal BioSciences Limited, priority 2021, dated 2026).
# Biological target: T1, human GPR84 receptor (Homo sapiens, UniProt Q9NQS5)
# T1 construct: host or cells: HEK293, transient transfection
# Experiment: Gαi biosensor BRET assay in HEK293 cells (antagonism of ZQ-16)
# Format: cell-based
# Conditions: HEK293, single concentration 2 μM (designated A)
# Outline: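 HEK293 cells transiently expressing human GPR84, Gαi2-Rluc8, GFP10-Gγ2 and Gβ1, in Tyrode's buffer pH 7.5. Compounds preincubated 5 min at 37° C, then 200 nmol/L ZQ-16 for 5 min at room temperature; coelenterazine 400A 5 μmol/L. BRET2 acceptor/donor ratio, background- and vehicle-corrected net BRET.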
# T1 sequence (Q9NQS5 whole entry): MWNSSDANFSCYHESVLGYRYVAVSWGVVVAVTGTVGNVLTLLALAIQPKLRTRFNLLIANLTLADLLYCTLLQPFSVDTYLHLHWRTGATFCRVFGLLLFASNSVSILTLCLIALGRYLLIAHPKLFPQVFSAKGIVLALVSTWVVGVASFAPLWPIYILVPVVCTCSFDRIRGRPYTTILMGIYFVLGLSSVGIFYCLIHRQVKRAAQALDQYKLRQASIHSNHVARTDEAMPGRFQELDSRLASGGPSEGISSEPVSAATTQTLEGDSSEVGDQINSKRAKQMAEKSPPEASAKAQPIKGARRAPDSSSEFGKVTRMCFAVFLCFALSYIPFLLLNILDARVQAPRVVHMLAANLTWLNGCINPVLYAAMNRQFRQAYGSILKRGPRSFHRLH
row,inhibition at 2 µM,Structure (SMILES)
1,≤ 25%,Cc1cc(C#CC2CC2)ccc1-c1cn(CC23CC(C)(CO2)C3)nn1 [Compound I-556]
2,≤ 25%,Cc1cc(C#CC2CC2)ccc1-c1cn(Cc2ccn(C)n2)nn1 [Compound I-543]

# The remaining lines, values behind:
row,Structure (SMILES),inhibition at 2 µM
1,O=C(O)c1cnc(-c2cn(CC3OCC4(CC4)CO3)nn2)c(OC2CC2)c1 [Compound I-855],> 75%
2,CC(C)Oc1cc(N2CC(C)(C)C2)ccc1-c1cn(CC2CCCCO2)nn1 (stereo not drawn) [Compound I-271],> 75%
3,Cc1cc(N2CC(C)(CO)C2)c(F)cc1-c1cn(C[C@@H]2CCCCO2)nn1 [Compound I-805],> 75%
4,COC(c1cn(Cc2ncccn2)nn1)c1cc(C#CC2CC2)ccc1C (stereo not drawn) [Compound I-674],> 75%
5,Cc1cc2ccc(N3CC(C)(C)C3)cc2nc1-c1cn(CC2CCCCO2)nn1 (stereo not drawn) [Compound I-622],≤ 25%

# Same assay, conditions: HEK293, single concentration 10 μM (designated F)
row,inhibition at 10 µM,Structure (SMILES)
1,≤ 25%,Cc1cc(C#CC2CC2)ccc1-c1cn(CC2CCC(=O)O2)nn1 (stereo not drawn) [Compound I-539]
2,≤ 25%,Cc1cc(C#CC2CC2)ccc1-c1cn(Cc2nccn2C)nn1 [Compound I-517]
3,≤ 25%,Cc1cc(N2CC(F)C2)ccc1-c1cn(CC2CCCCO2)nn1 (stereo not drawn) [Compound I-529]
4,≤ 25%,Cc1cc(C#CC2CC2)cnc1-c1cn(CC2OCC(c3ccccc3)CO2)nn1 (stereo not drawn) [Compound I-705]
5,> 75%,Cc1cc(C#CCNC(=O)OC(C)C)ccc1-c1cn(CC2CCCCO2)nn1 (stereo not drawn) [Compound I-616]
6,50 to 75%,Cc1cc(N2CC(C(C)O)C2)ccc1-c1cn(CC2CCCCO2)nn1 (stereo not drawn) [Compound I-508]
7,50 to 75%,Cc1cc(C#CC2CC2)cnc1-c1cn(CC2CC(C)(C)O2)nn1 (stereo not drawn) [Compound I-420]
8,≤ 25%,Cc1cc(C#CCN2CCCC2C(=O)O)ccc1-c1cn(CC2CCCCO2)nn1 (stereo not drawn) [Compound I-247]
9,50 to 75%,"Cc1cc(C#CC2CC2)ccc1-c1cn(CC2OCCCC2(C)C)nn1 (stereo not drawn) [Compound I-522, 4-(4-(cyclopropylethynyl)-2-methylphenyl)-1-((3,3-dimethyltetrahydro-2H-pyran-2-yl)methyl)-1H-1,2,3-triazole]"
10,25 to 50%,Cc1cc(NC(=O)C2CC2)ccc1-c1cn(CC2CCCCO2)nn1 (stereo not drawn) [Compound I-109]
11,≤ 25%,CC(=O)N1CCOCC1Cn1cc(-c2ccc(C#CC3CC3)cc2C)nn1 (stereo not drawn) [Compound I-99]
12,≤ 25%,Cc1cc(C#CCNC(C)C)ccc1-c1cn(CC2CCCCO2)nn1 (stereo not drawn) [Compound I-131]

# More lines, now with the values behind:
row,Structure (SMILES),inhibition at 10 µM
1,Cc1cc(C#CCNc2ccccc2)ccc1-c1cn(CCOc2ccccn2)nn1 [Compound I-135],≤ 25%
2,CN(C)c1cc(N2CC(C)(C)C2)ccc1-c1cn(CC2CCCCO2)nn1 (stereo not drawn) [Compound I-202],> 75%
3,Cc1cc(N2CC3(CCN(Cc4ccccc4)C3)C2)ccc1-c1cn(CC2CCCCO2)nn1 (stereo not drawn) [Compound I-169],≤ 25%
4,Cc1cc(N2CC(C)(CO)C2)ccc1-c1cn(CC2CCCCO2)nn1 (stereo not drawn) [Compound I-263],> 75%
5,"CN(C)c1cc(C#N)ccc1-c1cn(CC2OCC(C)(C)CO2)nn1 [Compound I-733, 4-(1-((5,5-dimethyl-1,3-dioxan-2-yl)methyl)-1H-1,2,3-triazol-4-yl)-3-(dimethylamino)benzonitrile]",50 to 75%
6,"Cc1cc(C#CCNC(=O)OC(C)C)cnc1-c1cn(CC2CCCCO2)nn1 (stereo not drawn) [Compound I-570, isopropyl (3-(5-methyl-6-(1-((tetrahydro-2H-pyran-2-yl)methyl)-1H-1,2,3-triazol-4-yl)pyridin-3-yl)prop-2-yn-1-yl)carbamate]",> 75%
7,Cc1noc(COc2ccc(-c3cn(CC4CCCCO4)nn3)c(C)c2)n1 (stereo not drawn) [Compound I-469],≤ 25%
8,Cc1cc(N2CCN(C3(c4ccccn4)CC3)CC2)ccc1-c1cn(CC2CCCCO2)nn1 (stereo not drawn) [Compound I-613],≤ 25%
9,Cc1cc(N2CC(C)(NCc3ccccn3)C2)c(F)cc1-c1cn(CC2CCCCO2)nn1 (stereo not drawn) [Compound I-737],> 75%
10,CC(c1ccnc(C#CC2CC2)c1)c1cn(CC2CCCCO2)nn1 (stereo not drawn) [Compound I-699],≤ 25%
11,"Cc1cccc(C#Cc2cn(CC3OCC(C)(C)CO3)nn2)c1 [Compound I-790, 1-((5,5-dimethyl-1,3-dioxan-2-yl)methyl)-4-(m-tolylethynyl)-1H-1,2,3-triazole]",≤ 25%
12,COc1cccc(N(C)c2cn(CC3OCC(C)(C)CO3)nn2)c1 [Compound I-812],≤ 25%
13,CC1(CO)CN(c2ccc(-c3cn(CC4OCC5(CCC5)O4)nn3)c(OC3CC3)c2)C1 (stereo not drawn) [Compound I-810],> 75%
14,Cc1cc(C#CCNC(=O)Oc2ccccc2)ccc1-c1cn(CC2CCCCO2)nn1 (stereo not drawn) [Compound I-619],> 75%
15,Cc1cc(N2CCN(Cc3ccccn3)CC2)ccc1-c1cn(CC2OCC(C)(C)O2)nn1 (stereo not drawn) [Compound I-603],50 to 75%
16,Cc1cc(N2CC3(CN(C)C3)C2)ccc1-c1cn(CC2CCCCO2)nn1 (stereo not drawn) [Compound I-145],≤ 25%
17,CC(C)C#Cc1cnc(-c2cn(CC3OCC4(CC4)CO3)nn2)c(OC2CC2)c1 [Compound I-861],> 75%
18,Cc1cc(N2CCN(Cc3ccnn3C)CC2)ccc1-c1cn(CC2CCCCO2)nn1 (stereo not drawn) [Compound I-581],≤ 25%
19,COCC#Cc1cnc(-c2cn(CC3CCCCO3)nn2)c(C)c1 (stereo not drawn) [Compound I-273],50 to 75%
20,CC(c1cccc(N2CC(C)(C)C2)c1)c1cn(CC2CCCCO2)nn1 (stereo not drawn) [Compound I-536],≤ 25%
21,COC(c1cn(CC2CCCCO2)nn1)c1cc(C#CC2CC2)c(F)cc1C (stereo not drawn) [Compound I-688],> 75%
22,CN(c1cccc(C#N)c1)c1cn(CC2OCC(C)(C)CO2)nn1 [Compound I-802],> 75%
23,Cc1ccc(N2CC(C)(C)C2)cc1-c1cn(CC2CCCCO2)nn1 (stereo not drawn) [Compound I-213],≤ 25%
24,Cc1cc(C#CCN2CC(C)(C)C2)cnc1-c1cn(C[C@H]2CCCCO2)nn1 [Compound I-284],> 75%
25,"Cc1ccc(-c2ccc(C3COC(=O)N3CC3CCCCO3)c(C)c2)cn1 (stereo not drawn) [Compound I-407, 4-(2-methyl-4-(6-methylpyridin-3-yl)phenyl)-3-((tetrahydro-2H-pyran-2-yl)methyl)oxazolidin-2-one]",≤ 25%
26,Cc1cc(N2CCN(CC3CC4CCN3CC4)CC2)ccc1-c1cn(CC2OCC(C)(C)CO2)nn1 (stereo not drawn) [Compound I-661],≤ 25%
27,Cc1cc(N2CCCC(N(C)C)C2)ccc1-c1cn(CC2CCCCO2)nn1 (stereo not drawn) [Compound I-153],≤ 25%

# Same assay, conditions: HEK293, single concentration 25 μM (designated I)
row,inhibition at 25 µM,Structure (SMILES)
1,≤ 25%,Cc1cc(C#CC2CC2)ccc1-c1cnn(CC2CCCCO2)c1 (stereo not drawn) [Compound I-324]

# Same assay, conditions: HEK293 cells, antagonism of 200 nmol/L ZQ-16
row,IC50,Structure (SMILES)
1,> 3 µM,Cc1cc(C#CCNC(=O)OC(C)C)ccc1-c1cn(CC2CCCCO2)nn1 (stereo not drawn) [Compound I-616]
2,1 to 3 µM,Cc1cc(C#CC2CC2)ccc1-c1cn(CC2OCCCO2)nn1 [Compound I-91]

# The remaining lines, values behind:
row,Structure (SMILES),IC50
1,CN(C)c1cc(N2CC(C)(C)C2)ccc1-c1cn(CC2CCCCO2)nn1 (stereo not drawn) [Compound I-202],1 to 3 µM
2,"Cc1cc(C#CCNC(=O)OC(C)C)cnc1-c1cn(CC2CCCCO2)nn1 (stereo not drawn) [Compound I-570, isopropyl (3-(5-methyl-6-(1-((tetrahydro-2H-pyran-2-yl)methyl)-1H-1,2,3-triazol-4-yl)pyridin-3-yl)prop-2-yn-1-yl)carbamate]",> 3 µM
3,Cc1cc(N2CC(C)(NCc3ccccn3)C2)c(F)cc1-c1cn(CC2CCCCO2)nn1 (stereo not drawn) [Compound I-737],0.3 to 1 µM
4,CC1(C)COC(Cn2cc(-c3ncc(N4CC(C)(CO)C4)cc3Cl)nn2)OC1 [Compound I-765],1 to 3 µM
5,CC1(CO)CN(c2ccc(-c3cn(CC4OCC5(CCC5)O4)nn3)c(OC3CC3)c2)C1 (stereo not drawn) [Compound I-810],0.3 to 1 µM
6,Cc1cc(C#CCNC(=O)Oc2ccccc2)ccc1-c1cn(CC2CCCCO2)nn1 (stereo not drawn) [Compound I-619],≤ 0.3 µM
7,Cc1cc(N2CCN(Cc3ccccn3)CC2)ccc1-c1cn(CC2OCC(C)(C)O2)nn1 (stereo not drawn) [Compound I-603],> 3 µM
8,CC1(CO)CN(c2ccc(-c3cn(CC4OCC5(CCC5)O4)nn3)c(CC(F)(F)F)c2)C1 (stereo not drawn) [Compound I-796],≤ 0.3 µM
9,CCc1cc(C#CCOC)ccc1-c1cn(CC2OCC(C)(C)CO2)nn1 [Compound I-770],≤ 0.3 µM
10,COC(c1cn(CC2CCCCO2)nn1)c1cc(C#CC2CC2)c(F)cc1C (stereo not drawn) [Compound I-688],0.3 to 1 µM
11,COC(c1cn(Cc2ncccn2)nn1)c1cc(C#CC2CC2)ccc1C (stereo not drawn) [Compound I-674],0.3 to 1 µM
